16 molecules from ChEMBL document CHEMBL1152171 (Bioorg Med Chem Lett, 2008) can be followed below.

One may read the Ki as the dissociation constant of the complex between target and ligand, obtained from inhibition or displacement. Read a low Ki as tighter binding.

A value given as a limit tells only on which side of the number the result lay.

In the experiment the target is Synaptic vesicular amine transporter (Rattus norvegicus, UniProt Q01827). Briefly: Displacement of [3H]dihydrotetrabenazine from vesicular monoamine transporter-2 in rat brain synaptosome. Format: tissue-based. Background: Loss of bound radioactivity is the signal in a displacement assay; it reports binding, not function.
Sequence of Synaptic vesicular amine transporter (Q01827 whole entry): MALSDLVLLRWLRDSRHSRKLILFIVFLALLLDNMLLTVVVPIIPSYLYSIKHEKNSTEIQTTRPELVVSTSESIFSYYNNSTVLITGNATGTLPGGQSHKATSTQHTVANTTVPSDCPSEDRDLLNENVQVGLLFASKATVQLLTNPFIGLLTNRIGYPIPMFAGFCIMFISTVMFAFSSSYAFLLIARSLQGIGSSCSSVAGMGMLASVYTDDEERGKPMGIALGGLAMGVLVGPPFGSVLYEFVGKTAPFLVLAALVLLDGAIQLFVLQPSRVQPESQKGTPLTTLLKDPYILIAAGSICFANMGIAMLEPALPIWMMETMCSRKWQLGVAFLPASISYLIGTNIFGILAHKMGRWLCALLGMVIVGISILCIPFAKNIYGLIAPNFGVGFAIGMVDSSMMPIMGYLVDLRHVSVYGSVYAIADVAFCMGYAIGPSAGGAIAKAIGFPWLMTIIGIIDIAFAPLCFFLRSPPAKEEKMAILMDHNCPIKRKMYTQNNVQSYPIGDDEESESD
Molecule `c1ccc(CC[C@H]2CCC[C@@H](c3ccccc3)N2)cc1` showed a Ki of 28.4 µM.

In the case of `CN1[C@@H](c2ccccc2)CCC[C@H]1c1ccccc1`, the Ki was > 100 µM.

`c1ccc(CCC[C@H]2CCC[C@@H](Cc3ccccc3)N2)cc1` showed a Ki of 1.13 µM.

Turning to `c1ccc(CCC[C@@H]2CCC[C@H](CCCc3ccccc3)N2)cc1`, affinity was put at a Ki of 4.56 µM.

Molecule `c1ccc(CCC[C@H]2CCC[C@@H](c3ccccc3)N2)cc1` gave a Ki of 28.6 µM.

`c1ccc(CCC[C@H]2CCC[C@@H](CCc3ccccc3)N2)cc1` showed an inhibition constant (Ki) of 4.6 µM.

Regarding `CN1[C@@H](CCCc2ccccc2)CCC[C@H]1Cc1ccccc1`, the affinity corresponds to a Ki of 1.62 µM.

The molecule `CN1[C@@H](CCCc2ccccc2)CCC[C@H]1CCc1ccccc1` registered a Ki of 0.88 µM.

`CN1[C@H](CCCc2ccccc2)CCC[C@@H]1CCCc1ccccc1` returned an inhibition constant Ki of 1 µM.

`CN1[C@@H](Cc2ccccc2)CCC[C@H]1Cc1ccccc1`: the Ki turned out to be 10.5 µM.

In turn, `CN1[C@@H](CCc2ccccc2)CCC[C@H]1Cc1ccccc1` displayed a Ki of 2.77 µM.

`c1ccc(C[C@H]2CCC[C@@H](c3ccccc3)N2)cc1` returned a Ki of 24.1 µM.

`CN1[C@@H](Cc2ccccc2)CCC[C@H]1c1ccccc1` registered a Ki of 13.6 µM.

`c1ccc(CC[C@H]2CCC[C@@H](Cc3ccccc3)N2)cc1` came in with a Ki of 12.2 µM.

Take `c1ccc(C[C@H]2CCC[C@@H](Cc3ccccc3)N2)cc1`: the Ki is 7.68 µM.

`CN1[C@@H](CCCc2ccccc2)CCC[C@H]1c1ccccc1` displayed a Ki of 62.5 µM.
